The target of test [1] is MAP/microtubule affinity-regulating kinase 3 (Homo sapiens) (UniProt P27448). Nature of the test: Inhibition of human full length c-TAK1 expressed in Escherichia coli cell assessed as substrate phosphorylation using fluorescence-labelled peptides as substrate at 0.2 uM after 90 mins by microfluidic peptide phosphorylation assay.
Test [2] addresses Ribosomal protein S6 kinase alpha-3 (Homo sapiens) (UniProt P51812). Nature of the test: Inhibition of human full length RSK2 expressed in baculovirus assessed as substrate phosphorylation using fluorescence-labelled peptides as substrate at 0.2 uM after 90 mins by microfluidic peptide phosphorylation assay.
Test [3] concerns the target Tyrosine-protein kinase Fyn (Homo sapiens) (UniProt P06241). Nature of the test: Inhibition of human full length FYN expressed in baculovirus assessed as substrate phosphorylation using fluorescence-labelled peptides as substrate at 0.2 uM after 90 mins by microfluidic peptide phosphorylation assay.
Test [4] deals with Casein kinase I isoform alpha (Homo sapiens) (UniProt P48729). In words: Inhibition of human full length CSNK1A1 expressed in baculovirus assessed as substrate phosphorylation using fluorescence-labelled peptides as substrate at 0.1 uM after 90 mins by microfluidic peptide phosphorylation assay.
Test [5] addresses T1, cGMP-dependent protein kinase 1 (Homo sapiens) (UniProt Q13976).
T1 sequence (whole entry): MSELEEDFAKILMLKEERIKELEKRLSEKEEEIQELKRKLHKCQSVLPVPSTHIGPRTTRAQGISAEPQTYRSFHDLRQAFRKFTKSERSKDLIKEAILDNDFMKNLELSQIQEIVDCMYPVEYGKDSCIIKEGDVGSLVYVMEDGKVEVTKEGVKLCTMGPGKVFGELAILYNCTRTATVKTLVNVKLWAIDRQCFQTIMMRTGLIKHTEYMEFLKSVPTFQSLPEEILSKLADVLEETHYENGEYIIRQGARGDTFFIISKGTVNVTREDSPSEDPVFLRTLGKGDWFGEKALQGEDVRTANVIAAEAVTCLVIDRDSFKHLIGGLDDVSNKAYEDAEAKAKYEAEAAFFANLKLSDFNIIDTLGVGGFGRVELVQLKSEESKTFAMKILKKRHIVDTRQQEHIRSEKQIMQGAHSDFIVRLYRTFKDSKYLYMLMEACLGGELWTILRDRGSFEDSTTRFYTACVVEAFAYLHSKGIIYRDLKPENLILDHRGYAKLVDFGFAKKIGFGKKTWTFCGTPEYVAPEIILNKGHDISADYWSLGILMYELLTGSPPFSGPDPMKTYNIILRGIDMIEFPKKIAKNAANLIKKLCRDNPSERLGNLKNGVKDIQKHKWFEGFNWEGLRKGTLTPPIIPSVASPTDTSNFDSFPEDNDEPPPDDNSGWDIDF
Particulars: 0.1 uM.
Description: Inhibition of human full length PKG-1beta expressed in baculovirus assessed as substrate phosphorylation using fluorescence-labelled peptides as substrate at 0.1 uM after 90 mins by microfluidic peptide phosphorylation assay

For test [6], the target named is Calcium/calmodulin-dependent protein kinase type II subunit delta (Homo sapiens) (UniProt Q13557). In words: Inhibition of human full length CAMK2D expressed in baculovirus assessed as substrate phosphorylation using fluorescence-labelled peptides as substrate at 95 uM after 90 mins by microfluidic peptide phosphorylation assay.
Test [7] deals with Tyrosine-protein kinase Fyn (Homo sapiens) (UniProt P06241). Nature of the test: Inhibition of human full length FYN expressed in baculovirus assessed as substrate phosphorylation using fluorescence-labelled peptides as substrate at 8 uM after 90 mins by microfluidic peptide phosphorylation assay.
For test [8], the target named is T2, Serine/threonine-protein kinase Sgk1 (Homo sapiens) (UniProt O00141).
T2 sequence (whole entry): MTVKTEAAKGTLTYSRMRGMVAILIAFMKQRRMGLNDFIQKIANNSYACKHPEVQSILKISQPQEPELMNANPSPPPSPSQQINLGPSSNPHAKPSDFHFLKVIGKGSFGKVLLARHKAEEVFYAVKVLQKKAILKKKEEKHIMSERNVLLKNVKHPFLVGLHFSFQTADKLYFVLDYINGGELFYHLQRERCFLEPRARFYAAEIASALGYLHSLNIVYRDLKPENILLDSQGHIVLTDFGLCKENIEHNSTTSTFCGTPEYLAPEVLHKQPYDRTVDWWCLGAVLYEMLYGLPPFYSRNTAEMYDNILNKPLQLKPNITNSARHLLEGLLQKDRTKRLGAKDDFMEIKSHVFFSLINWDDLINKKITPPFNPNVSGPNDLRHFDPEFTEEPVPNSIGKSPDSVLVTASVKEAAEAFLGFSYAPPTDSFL
In words: Inhibition of human truncated SGK1 expressed in baculovirus assessed as substrate phosphorylation using fluorescence-labelled peptides as substrate at 8 uM after 90 mins by microfluidic peptide phosphorylation assay.

The target of test [9] is Protein kinase C beta type (Homo sapiens) (UniProt P05771). In words: Inhibition of human full length PKC beta2 expressed in baculovirus assessed as substrate phosphorylation using fluorescence-labelled peptides as substrate at 8 uM after 90 mins by microfluidic peptide phosphorylation assay.
Test [10] deals with Tyrosine-protein kinase ABL1 (Homo sapiens), P00519 [H396P]. In words: Inhibition of human truncated ABL H396P mutant expressed in baculovirus assessed as substrate phosphorylation using fluorescence-labelled peptides as substrate at […] after 90 mins by microfluidic peptide phosphorylation assay.
In test [11] the target is Tyrosine-protein kinase Lyn (Homo sapiens) (UniProt P07948). Nature of the test: Inhibition of human full length LYN expressed in baculovirus assessed as substrate phosphorylation using fluorescence-labelled peptides as substrate at 2 uM after 90 mins by microfluidic peptide phosphorylation assay.
The target of test [12] is T3, Serine/threonine-protein kinase Nek2 (Homo sapiens) (UniProt P51955).
T3 sequence (whole entry): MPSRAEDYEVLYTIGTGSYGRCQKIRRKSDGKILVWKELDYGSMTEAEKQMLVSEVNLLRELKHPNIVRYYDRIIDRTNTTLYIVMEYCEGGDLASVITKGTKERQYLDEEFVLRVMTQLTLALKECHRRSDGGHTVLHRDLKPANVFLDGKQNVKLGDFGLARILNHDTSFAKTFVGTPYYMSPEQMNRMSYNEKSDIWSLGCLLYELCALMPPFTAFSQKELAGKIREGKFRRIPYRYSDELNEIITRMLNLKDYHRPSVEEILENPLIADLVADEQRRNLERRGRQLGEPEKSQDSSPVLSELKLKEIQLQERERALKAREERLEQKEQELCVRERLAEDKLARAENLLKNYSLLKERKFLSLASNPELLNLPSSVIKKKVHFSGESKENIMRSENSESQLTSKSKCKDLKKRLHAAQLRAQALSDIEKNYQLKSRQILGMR
Nature of the test: Inhibition of human full length NEK2 expressed in baculovirus assessed as substrate phosphorylation using fluorescence-labelled peptides as substrate at 2 uM after 90 mins by microfluidic peptide phosphorylation assay.

Test [13] addresses Mitogen-activated protein kinase kinase kinase kinase 4 (Homo sapiens) (UniProt O95819). In words: Inhibition of human HGK catalytic domain expressed in baculovirus assessed as substrate phosphorylation using fluorescence-labelled peptides as substrate at 2 uM after 90 mins by microfluidic peptide phosphorylation assay.

Tyrosine-protein kinase Fyn (Homo sapiens), sequence (P06241 2-537 limits assumed): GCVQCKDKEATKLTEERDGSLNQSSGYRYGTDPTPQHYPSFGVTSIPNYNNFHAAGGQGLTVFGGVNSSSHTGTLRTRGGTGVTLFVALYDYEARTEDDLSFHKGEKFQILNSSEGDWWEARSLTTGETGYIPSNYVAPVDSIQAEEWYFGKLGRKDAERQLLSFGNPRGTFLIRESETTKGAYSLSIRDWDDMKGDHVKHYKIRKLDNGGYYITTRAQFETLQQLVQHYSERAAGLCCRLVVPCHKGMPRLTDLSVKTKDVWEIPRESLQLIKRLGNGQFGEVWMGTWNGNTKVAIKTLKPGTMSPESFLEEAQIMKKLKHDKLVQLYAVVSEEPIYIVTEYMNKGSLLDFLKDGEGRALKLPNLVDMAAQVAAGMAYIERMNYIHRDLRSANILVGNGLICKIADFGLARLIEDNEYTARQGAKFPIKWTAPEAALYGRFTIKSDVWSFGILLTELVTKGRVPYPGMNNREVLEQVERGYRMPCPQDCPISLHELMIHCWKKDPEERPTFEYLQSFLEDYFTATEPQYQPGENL
MAP/microtubule affinity-regulating kinase 3 (Homo sapiens), sequence (P27448 whole entry, looked up): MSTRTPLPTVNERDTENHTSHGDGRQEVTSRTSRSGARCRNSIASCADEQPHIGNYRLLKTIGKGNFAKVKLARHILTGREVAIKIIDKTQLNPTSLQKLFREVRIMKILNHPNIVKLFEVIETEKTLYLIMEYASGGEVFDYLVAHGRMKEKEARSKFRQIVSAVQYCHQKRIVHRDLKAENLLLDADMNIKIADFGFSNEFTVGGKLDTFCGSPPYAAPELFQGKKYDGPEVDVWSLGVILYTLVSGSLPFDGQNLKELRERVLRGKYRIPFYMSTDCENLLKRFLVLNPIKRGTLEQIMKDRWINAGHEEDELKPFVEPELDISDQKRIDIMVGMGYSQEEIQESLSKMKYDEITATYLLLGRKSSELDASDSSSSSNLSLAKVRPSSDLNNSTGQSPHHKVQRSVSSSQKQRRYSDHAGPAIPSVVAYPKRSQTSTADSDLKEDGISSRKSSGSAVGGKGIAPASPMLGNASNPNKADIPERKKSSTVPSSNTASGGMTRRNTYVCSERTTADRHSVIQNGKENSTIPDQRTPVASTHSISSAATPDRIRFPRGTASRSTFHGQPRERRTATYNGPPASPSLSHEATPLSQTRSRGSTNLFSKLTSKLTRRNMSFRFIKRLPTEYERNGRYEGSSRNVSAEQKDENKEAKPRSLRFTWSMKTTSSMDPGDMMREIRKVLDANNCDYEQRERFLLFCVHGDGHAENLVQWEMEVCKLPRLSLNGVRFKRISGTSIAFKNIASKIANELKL
Calcium/calmodulin-dependent protein kinase type II subunit delta (Homo sapiens), sequence (Q13557 whole entry): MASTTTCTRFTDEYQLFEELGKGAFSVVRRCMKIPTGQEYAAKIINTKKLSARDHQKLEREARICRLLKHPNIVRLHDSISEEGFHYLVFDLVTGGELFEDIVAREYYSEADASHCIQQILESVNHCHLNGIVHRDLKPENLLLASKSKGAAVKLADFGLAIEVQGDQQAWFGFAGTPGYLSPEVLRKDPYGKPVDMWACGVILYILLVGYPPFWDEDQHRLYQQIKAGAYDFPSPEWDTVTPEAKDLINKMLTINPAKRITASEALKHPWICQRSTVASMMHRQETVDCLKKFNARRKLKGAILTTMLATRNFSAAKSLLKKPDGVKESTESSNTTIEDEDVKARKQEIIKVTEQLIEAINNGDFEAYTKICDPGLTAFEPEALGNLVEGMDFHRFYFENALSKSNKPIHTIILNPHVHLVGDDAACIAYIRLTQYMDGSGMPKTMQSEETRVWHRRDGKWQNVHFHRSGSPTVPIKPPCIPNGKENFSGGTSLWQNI
Casein kinase I isoform alpha (Homo sapiens), sequence (P48729 2-337 limits assumed): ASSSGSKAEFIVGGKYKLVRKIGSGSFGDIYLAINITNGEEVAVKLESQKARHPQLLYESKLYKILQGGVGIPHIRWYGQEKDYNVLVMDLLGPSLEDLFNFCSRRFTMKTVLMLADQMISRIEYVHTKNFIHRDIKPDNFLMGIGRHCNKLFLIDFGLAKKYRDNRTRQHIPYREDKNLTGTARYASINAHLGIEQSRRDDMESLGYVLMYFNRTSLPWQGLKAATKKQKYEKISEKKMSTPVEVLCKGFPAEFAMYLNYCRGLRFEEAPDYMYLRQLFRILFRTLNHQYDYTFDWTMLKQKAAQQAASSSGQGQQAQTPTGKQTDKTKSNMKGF
Protein kinase C beta type (Homo sapiens), sequence (P05771 2-671 limits assumed): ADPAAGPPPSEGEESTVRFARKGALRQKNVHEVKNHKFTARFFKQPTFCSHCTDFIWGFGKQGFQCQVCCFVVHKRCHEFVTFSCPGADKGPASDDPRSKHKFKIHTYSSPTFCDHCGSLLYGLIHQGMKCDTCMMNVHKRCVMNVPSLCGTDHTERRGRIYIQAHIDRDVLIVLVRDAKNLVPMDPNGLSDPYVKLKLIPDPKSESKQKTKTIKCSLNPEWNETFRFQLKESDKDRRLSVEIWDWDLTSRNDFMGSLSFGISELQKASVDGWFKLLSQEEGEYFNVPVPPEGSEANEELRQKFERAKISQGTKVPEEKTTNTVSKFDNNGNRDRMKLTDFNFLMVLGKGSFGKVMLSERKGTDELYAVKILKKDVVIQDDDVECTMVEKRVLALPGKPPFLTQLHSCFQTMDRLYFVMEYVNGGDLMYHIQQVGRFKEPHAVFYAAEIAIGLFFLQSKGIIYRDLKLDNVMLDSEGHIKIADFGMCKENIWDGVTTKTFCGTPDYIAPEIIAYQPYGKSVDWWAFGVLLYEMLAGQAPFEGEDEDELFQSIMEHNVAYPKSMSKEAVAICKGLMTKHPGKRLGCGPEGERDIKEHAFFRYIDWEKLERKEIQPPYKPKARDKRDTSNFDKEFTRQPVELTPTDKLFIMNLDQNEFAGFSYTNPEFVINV
Mitogen-activated protein kinase kinase kinase kinase 4 (Homo sapiens), sequence (O95819 2-1239 limits assumed): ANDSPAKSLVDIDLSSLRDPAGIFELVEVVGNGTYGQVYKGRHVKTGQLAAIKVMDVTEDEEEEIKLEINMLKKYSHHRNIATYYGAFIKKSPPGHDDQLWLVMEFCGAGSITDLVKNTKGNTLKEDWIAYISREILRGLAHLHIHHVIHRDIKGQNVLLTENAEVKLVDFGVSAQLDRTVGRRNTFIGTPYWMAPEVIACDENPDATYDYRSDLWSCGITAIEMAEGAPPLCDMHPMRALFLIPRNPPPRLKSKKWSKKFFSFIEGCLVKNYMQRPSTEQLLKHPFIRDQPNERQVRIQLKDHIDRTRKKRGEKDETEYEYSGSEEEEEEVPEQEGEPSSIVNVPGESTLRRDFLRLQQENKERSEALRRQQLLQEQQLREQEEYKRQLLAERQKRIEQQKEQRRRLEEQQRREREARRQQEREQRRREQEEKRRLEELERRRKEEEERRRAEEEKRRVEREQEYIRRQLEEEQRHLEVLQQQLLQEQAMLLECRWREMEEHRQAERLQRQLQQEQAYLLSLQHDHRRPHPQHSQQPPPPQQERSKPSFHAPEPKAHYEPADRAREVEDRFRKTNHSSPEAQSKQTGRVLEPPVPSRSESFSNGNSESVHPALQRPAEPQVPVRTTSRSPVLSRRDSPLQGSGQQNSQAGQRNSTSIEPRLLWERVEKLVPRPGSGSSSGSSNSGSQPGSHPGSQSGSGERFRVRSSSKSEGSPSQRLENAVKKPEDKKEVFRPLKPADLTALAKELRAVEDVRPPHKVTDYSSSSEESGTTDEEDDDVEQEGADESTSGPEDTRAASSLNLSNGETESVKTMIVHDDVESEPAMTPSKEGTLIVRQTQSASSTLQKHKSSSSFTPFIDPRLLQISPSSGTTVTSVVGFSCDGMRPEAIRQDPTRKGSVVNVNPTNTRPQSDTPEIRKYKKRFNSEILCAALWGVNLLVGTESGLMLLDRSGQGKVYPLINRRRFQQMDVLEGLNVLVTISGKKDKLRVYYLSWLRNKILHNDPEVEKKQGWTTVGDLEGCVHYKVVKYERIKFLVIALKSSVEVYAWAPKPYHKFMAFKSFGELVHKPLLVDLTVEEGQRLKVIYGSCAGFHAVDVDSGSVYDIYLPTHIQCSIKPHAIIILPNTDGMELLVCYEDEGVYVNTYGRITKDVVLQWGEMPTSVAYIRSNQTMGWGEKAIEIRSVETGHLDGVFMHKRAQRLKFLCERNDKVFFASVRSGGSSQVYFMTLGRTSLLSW
Tyrosine-protein kinase Lyn (Homo sapiens), sequence (P07948 2-512 limits assumed): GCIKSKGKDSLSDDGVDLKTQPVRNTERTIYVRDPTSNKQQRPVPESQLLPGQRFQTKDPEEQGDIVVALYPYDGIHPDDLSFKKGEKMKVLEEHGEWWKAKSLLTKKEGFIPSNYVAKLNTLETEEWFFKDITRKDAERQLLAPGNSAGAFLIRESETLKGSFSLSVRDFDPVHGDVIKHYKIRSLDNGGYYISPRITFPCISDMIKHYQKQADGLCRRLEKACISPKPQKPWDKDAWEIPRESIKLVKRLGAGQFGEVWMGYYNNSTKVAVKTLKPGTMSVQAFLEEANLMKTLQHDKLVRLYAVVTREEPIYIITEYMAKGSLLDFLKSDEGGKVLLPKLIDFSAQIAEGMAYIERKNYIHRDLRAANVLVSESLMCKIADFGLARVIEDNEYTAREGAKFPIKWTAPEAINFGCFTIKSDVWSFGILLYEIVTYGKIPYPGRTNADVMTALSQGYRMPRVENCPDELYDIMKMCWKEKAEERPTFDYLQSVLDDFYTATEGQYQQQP

In general, inhibition refers to the percentage by which the read-out fell short of the control. Consider `Clc1ccc(C2(c3ccc(-c4ncnc5[nH]cnc45)cc3)CCNCC2)cc1`, for which the values for the inhibition in test [1], in test [2] and in test [3] were 27.5%, 55% and 16%, respectively.
Consider `C[C@H](CN(C)C)Oc1nc(Nc2cc3cccc(Cl)c3cn2)cnc1C#N`, for which the inhibition in [4] was 2.5%; in [5] it was 0%.
With `NCCc1ccc(-c2ncnc3[nH]cnc23)cc1`, in test [6], the inhibition is 45.5%.
As to `NCC1CCN(c2ncnc3[nH]ccc23)CC1`, the figures for the inhibition in test [7], in [8] and in [9] were 1%, 59% and 88.5%, respectively.
As to `COC(=O)c1cnc(Nc2cnc(C#N)cn2)cc1NCC1CCNCC1`, in test [10], the inhibition was determined as 1%.
As to `NC1CCN(c2ncnc3[nH]ccc23)CC1`, the inhibition turned out to be 0.5% in test [11], 0% in [12] and 0% in test [13].

These data come from ChEMBL document CHEMBL3132769, “Fragment growing to retain or alter the selectivity of anchored kinase hinge-binding fragments” (Medchemcomm, 2014).
